The source of these data is patent US20230012570A1, “BICYCLIC COMPOUND USED AS SELECTIVE ANDROGEN RECEPTOR MODULATOR” (MEDSHINE DISCOVERY INC., priority 2019, published 2023).

The target of one data set is T1, CYP2C9 (Homo sapiens, UniProt P11712).
T1 construct: Mixed human liver microsomes (HLM) were purchased from Corning Inc; tissue Corning Inc. or XenoTech, LLC. or other suppliers; host or cells: pooled human liver microsomes
The experiment in a line: Human liver microsomal CYP inhibition experiment, CYP2C9. Format: in vitro ADME. As to the method: (§1) Experiment Embodiment 4: Human Liver Microsomal CYP Inhibition Experiment
(§2) The inhibitory effects of the test compound 3A and VK5211 on the activities of human liver microsomal cytochrome P450 isozymes (CYP1A2, CYP2C9, CYP2C19, CYP2D6 and CYP3A4) were determined.
(§3) Mixed human liver microsomes (HLM) were purchased from Corning Inc. (Steuben, New York, USA) or XenoTech, LLC. (Lenexa, Kans., USA) or other suppliers, and were stored at a temperature below −60° C. before use.
(§4) First, the test compound (10.0 mM) was gradient diluted to prepare working solution (100×final concentration), and the concentrations of the working solution were: 5.00, 1.50, 0.500, 0.150, 0.0500, 0.0150, 0.00500 mM, and a working solution of each positive inhibitor of P450 isozymes (CYP1A2, CYP2C9, CYP2C19, CYP2D6, and CYP3A4) and a specific substrate mixture thereof (5 in 1) were prepared at the same time; human liver microsomes stored in a refrigerator at a temperature lower than −60° C. were put on ice to thaw, and when all the human liver microsomes were dissolved, the microsomes were diluted with potassium phosphate buffer (PB) to prepare a working solution of a certain concentration (0.253 mg/mL). […] The concentration of metabolites produced by the probe substrate in the sample was determined by liquid chromatography-tandem mass spectrometry (LC-MS/MS) method. […]

Data set [1] is described as follows: Pharmacokinetic test in male SD rats, intravenous and intragastric administration, plasma LC-MS/MS. It counts as in vivo. To be noted: rat; for AUC(0-t): read-out: Curve area (0-t) AUC0-last; for half-life: read-out: Half-life T1/2 (converted). The source says:
Experimental Embodiment 2: Pharmacokinetic Test of the Compounds of the Present Disclosure
Male SD rats were used as test animals, and LC-MS/MS method was used to determine the drug concentrations in plasma of rats at different time after intravenous and intragastric administration of compound 1A, compound 3A and compound 8A. To study the pharmacokinetic behavior of the compounds in rats and to evaluate their pharmacokinetic characteristics.
2.1 Test Drugs: Compound 1A, Compound 3A and Compound 8A
2.2 Test animals: 12 healthy adult male SD rats, divided into 6 groups with 2 rats in each group. The animal was purchased from Shanghai Sippr-BK laboratory animal Co. Ltd., and the animal production license number was SOCK (Shanghai) 2013-0016.
An appropriate amount of sample was weighed, and appropriate amounts of DMSO, polyethylene glycol-15 hydroxystearate and water were added in turn according to the volume ratio of 10:10:80, and the clarified state of 0.2 mg/mL was reached after stirring and sonication for intravenous administration.
An appropriate amount of sample was weighed and dissolved in 5% Tween 80+90% polyethylene glycol 400+5% polyvinylpyrrolidone K30 solution, and the clarified state of 0.5 mg/mL was reached after stirring and sonication for intragastric administration.
12 male SD rats were divided into 6 groups, and after fasting overnight, groups 1-3 were administered intravenously with a volume of 5 mL/kg; groups 4-6 were administered by gavage with a volume of 10 mL/kg.
After compound 1A, compound 3A and compound 8A were intravenously administered to SD rats, 40 μL of blood was collected at 0.0833, 0.25, 0.5, 1, 2, 4, 8 and 24 hours, respectively, and placed in a test tube containing 2 μL of EDTA-K2. After compound 1A and compound 3A were administered by gavage, 40 μL of blood was collected at 0.25, 0.5, 1, 2, 4, 8 and 24 hours, respectively, and placed in a test tube containing 2 μL of EDTA-K2. The tubes were centrifuged at 4000 rpm for 15 minutes to separate the plasma and stored at −60° C. Animals were allowed to eat 2 hours after administration.
The content of the test compounds in the plasma of rats after intravenous and intragastric administration was determined by LC-MS/MS method. The linear range of the method was 2.00-6000 nmol/L; plasma samples were analyzed after acetonitrile precipitation protein treatment.

The target of another data set is T2, CYP1A2 (Homo sapiens, UniProt P05177).
T2 construct: Mixed human liver microsomes (HLM) were purchased from Corning Inc; tissue Corning Inc. or XenoTech, LLC. or other suppliers; host or cells: pooled human liver microsomes
T2 sequence (P05177 1-516): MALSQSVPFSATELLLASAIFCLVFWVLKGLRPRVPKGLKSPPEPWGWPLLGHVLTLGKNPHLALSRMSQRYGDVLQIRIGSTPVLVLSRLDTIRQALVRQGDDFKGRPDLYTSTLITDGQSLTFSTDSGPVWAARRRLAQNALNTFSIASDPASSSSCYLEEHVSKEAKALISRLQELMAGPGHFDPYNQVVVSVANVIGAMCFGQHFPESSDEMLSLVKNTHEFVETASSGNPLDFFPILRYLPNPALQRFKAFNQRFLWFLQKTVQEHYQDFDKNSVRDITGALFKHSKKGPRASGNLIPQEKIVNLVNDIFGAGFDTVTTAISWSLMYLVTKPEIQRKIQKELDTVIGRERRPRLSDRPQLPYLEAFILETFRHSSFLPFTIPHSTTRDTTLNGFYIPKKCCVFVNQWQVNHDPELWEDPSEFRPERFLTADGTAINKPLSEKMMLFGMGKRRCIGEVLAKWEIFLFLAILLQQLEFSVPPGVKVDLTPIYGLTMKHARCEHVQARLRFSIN
The experiment in a line: Human liver microsomal CYP inhibition experiment, CYP1A2. It counts as in vitro ADME. As to the method:
as §1, §2, §3, §4
(Microsomes from liver hold many membrane-bound enzymes, among them those of drug oxidation.)

Where [2] appears, read: intravenous administration, dose 1.1 (1A), 0.69 (3A), 0.716 (8A) mg/kg.
Setting [3] is: po, intragastric administration, dose 4.92 (1A), 4.2 (3A), 4.59 (8A) mg/kg.

The pIC50 is the IC50 on a negative log10 scale, so that one unit is a factor of ten. Lower therefore signals a high IC50. A word on the clearance: it is the rate of elimination divided by the concentration. For orientation: bioavailability means the share of a dose that reaches the circulation, judged against a reference dose that is usually intravenous. As usually defined, the Tmax is the time at which the peak concentration occurs.

Each structure is given as a SMILES string. pIC50: −log10 of the molar value. Where two headings read alike, the source gives them in different places.

T1 sequence (P11712 whole entry): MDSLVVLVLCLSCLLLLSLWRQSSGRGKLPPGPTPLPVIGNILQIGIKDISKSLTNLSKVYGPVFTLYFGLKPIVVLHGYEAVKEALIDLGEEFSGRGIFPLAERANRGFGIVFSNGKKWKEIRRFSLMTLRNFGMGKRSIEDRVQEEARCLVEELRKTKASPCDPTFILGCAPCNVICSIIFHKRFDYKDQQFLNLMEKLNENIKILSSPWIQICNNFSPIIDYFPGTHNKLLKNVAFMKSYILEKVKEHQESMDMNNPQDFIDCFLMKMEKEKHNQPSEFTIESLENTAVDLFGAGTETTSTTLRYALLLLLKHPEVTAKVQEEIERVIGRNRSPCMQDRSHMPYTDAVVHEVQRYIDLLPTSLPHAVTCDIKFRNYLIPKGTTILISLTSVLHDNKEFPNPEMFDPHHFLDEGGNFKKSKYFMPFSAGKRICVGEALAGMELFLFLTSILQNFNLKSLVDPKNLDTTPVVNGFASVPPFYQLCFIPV

For `N#Cc1ccc(N2CC3CC3C2C(O)C(F)(F)F)cc1Cl` (single isomer, unassigned) [Compound 3A], the negative logarithm of the IC50 (pIC50) against CYP2C9 is less than 4.30; against CYP1A2, 4.53. Also, in data set [1] (intravenous administration, dose 1.1 (1A), 0.69 (3A), 0.716 (8A) mg/kg, read-out: Apparent volume of distribution Vdss), the Vd amounted to 1.83 L/kg. Besides, in data set [1] (intravenous administration, dose 1.1 (1A), 0.69 (3A), 0.716 (8A) mg/kg, read-out: Clearance rate Cl), the clearance is 28.6 mL/min/kg. For the same molecule, the AUC(0-inf) in data set [1] (intravenous administration, dose 1.1 (1A), 0.69 (3A), 0.716 (8A) mg/kg, read-out: Curve area (0-inf) AUC0-inf) was determined as 1.29 µM·h. Also, the AUC(0-t) in data set [1] (setting [2]) stood at 1.28 µM·h; in data set [1] (setting [3]), 1.25 µM·h. Also, the results for the half-life in data set [1] (setting [2]) and in data set [1] (setting [3]) were 81 min and 108 min, respectively. The bioavailability in data set [1] (oral, intragastric vs intravenous administration, read-out: Bioavailability F) was 16%. Also, the Cmax in data set [1] (po, intragastric administration, dose 4.92 (1A), 4.2 (3A), 4.59 (8A) mg/kg, read-out: Blood drug concentration Cmax) worked out at 262 nM. Besides, the Tmax in data set [1] (po, intragastric administration, dose 4.92 (1A), 4.2 (3A), 4.59 (8A) mg/kg, read-out: Peak time Tmax) stood at 3 h.
